# Paper PMC6934184, “Selective DNA-PKcs inhibition extends the therapeutic index of localized radiotherapy and chemotherapy” (The Journal of Clinical Investigation, 2019)
# Target: T1, PHKG2 (Homo sapiens, UniProt P15735)
# T1 construct: purchased Thermo Fisher Scientific (Life Technologies) SelectScreen
# Experiment: SelectScreen Z'LYTE
# Assay type: biochemical
# Method in brief: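 Percent values come from Thermo SelectScreen profiling of NU5455, combining activity and binding assays. CSF1R was run in Z'LYTE format at Km app ATP, and CAMK1 in Adapta format with ATP listed at 10.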
# T1 sequence (P15735 whole entry): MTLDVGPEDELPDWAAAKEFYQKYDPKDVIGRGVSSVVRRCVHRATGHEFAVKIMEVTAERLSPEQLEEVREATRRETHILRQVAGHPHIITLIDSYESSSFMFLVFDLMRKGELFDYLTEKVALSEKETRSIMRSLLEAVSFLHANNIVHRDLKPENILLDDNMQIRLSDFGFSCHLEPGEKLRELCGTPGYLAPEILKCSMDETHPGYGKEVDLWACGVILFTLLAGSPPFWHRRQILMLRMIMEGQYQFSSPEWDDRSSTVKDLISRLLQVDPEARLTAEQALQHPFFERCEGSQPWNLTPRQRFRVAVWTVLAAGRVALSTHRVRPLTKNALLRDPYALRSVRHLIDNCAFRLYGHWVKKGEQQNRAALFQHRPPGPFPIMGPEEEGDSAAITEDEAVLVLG
structure (smiles),measurement,value
CN(C(=O)CN1CCOCC1)c1ccc2sc3c(-c4cccc5c(=O)cc(N6CC7CCC(C6)O7)oc45)cccc3c2c1 [NU5455],inhibition at 1 µM,-3.6%
